Experimental data reported in US20150018311A1, “THERAPEUTIC BORON-CONTAINING COMPOUNDS” (priority 2012, published 2015).

Assays:
Assay in all cases: Growth in liquid media in presence of test compound
Type in all cases: cell-based
[1] = system: Mycobacterium tuberculosis (H37Rv)
[2] = system: Streptococcus pyogenes (ATCC 19615)
From the text: (§1) Test organisms used were the bacterial strains Escherichia coli (ATCC 25922), Pseudomonas aeruginosa (ATCC 27853), Staphylococcus aureus (ATCC 25923), Streptococcus pyogenes (ATCC 19615), and Mycobacterium tuberculosis (H37Rv), and the yeast strain Candida albicans (ATCC 90028).
(§2) The liquid media used for growth were Luria-Bertani (Becton Dickinson, Sparks, Md.) and Mueller-Hinton (bio-Merieux, Paris, France) broths, but with Saburo medium for Candida and Middlebrook 7H9 medium (Difco) for mycobacteria.
(§3) The strains were grown at 37° C. and after suitable cell concentrations had been reached, 100 μL of each cell suspension was added to a tube with growth media and test compound. Cultivation of the bacteria was then carried out in the presence of each test compound at 37° C. and the tubes examined for visible growth. The compounds were tested at concentrations of either 500 mg/l, 50 mg/l or 5 mg/l. This assay was repeated twice.
(§4) Some compounds were only tested against some test organisms. It will be appreciated that the charge of these molecules will depend on the environment, some of the Examples are shown with a suitable counter ion, some without.

[3] = system: Staphylococcus aureus (ATCC 25923)
From the text: as §1, §2, §3, §4

[4] = system: Candida albicans (ATCC 90028)
From the text: as §1, §2, §3, §4

[5] = system: Escherichia coli (ATCC 25922)
From the text: as §1, §2, §3, §4

[6] = system: Pseudomonas aeruginosa (ATCC 27853)
From the text: as §1, §2, §3, §4

Structure (SMILES)	Growth in the presence of test compound, M. tuberculosis ([1]; 5 mg/L)	Growth in the presence of test compound, M. tuberculosis ([1]; 50 mg/L)	Growth in the presence of test compound, M. tuberculosis ([1]; 500 mg/L)	Growth in the presence of test compound, S. pyogenes ([2]; 5 mg/L)	Growth in the presence of test compound, S. pyogenes ([2]; 50 mg/L)	Growth in the presence of test compound, S. pyogenes ([2]; 500 mg/L)	Growth in the presence of test compound, S. aureus ([3]; 5 mg/L)	Growth in the presence of test compound, S. aureus ([3]; 50 mg/L)	Growth in the presence of test compound, S. aureus ([3]; 500 mg/L)	Growth in the presence of test compound, C. albicans ([4]; 5 mg/L)	Growth in the presence of test compound, C. albicans ([4]; 50 mg/L)	Growth in the presence of test compound, C. albicans ([4]; 500 mg/L)	Growth in the presence of test compound, E. coli ([5]; 5 mg/L)	Growth in the presence of test compound, E. coli ([5]; 50 mg/L)	Growth in the presence of test compound, E. coli ([5]; 500 mg/L)	Growth in the presence of test compound, P. aeruginosa ([6]; 5 mg/L)	Growth in the presence of test compound, P. aeruginosa ([6]; 50 mg/L)	Growth in the presence of test compound, P. aeruginosa ([6]; 500 mg/L)
CC1(C)C2CC3OB(CC(Cc4ccccc4)NC(=O)C(N)Cc4ccccc4)OC3(C)C1C2 (stereo not drawn) [Compound 2]	+	+	±															
CC(N)C(=O)NC(CB1OC2CC3CC(C3(C)C)C2(C)O1)Cc1ccccc1 (stereo not drawn) [Compound 3]	+	−	−	+	+	−	+	+	−									
CC1(C)C2CC3OB(CC(Cc4ccccc4)NC(=O)C(N)CCCNC(=N)N)OC3(C)C1C2 (stereo not drawn) [Compound 4]	+	−	−	+	+	−	+	+	−	+	+	−	+	+	−			
CC1(C)C2CC3OB(CC(Cc4ccccc4)NC(=O)C(N)Cc4c[nH]c5ccccc45)OC3(C)C1C2 (stereo not drawn) [Compound 5]	+	±	−				+	+	−									
CC(CB1OC2CC3CC(C3(C)C)C2(C)O1)NC(=O)C(N)CCCCN (stereo not drawn) [Compound 6]	+	+	±															
CC(N)C(=O)NC(CB1OC2CC3CC(C3(C)C)C2(C)O1)c1ccccc1 (stereo not drawn) [Compound 8]	+	+	−				+	+	±									
CC1(C)C2CC3OB([C@@H](CNC(=O)[C@@H](N)CCCCN)Cc4ccccc4)O[C@]3(C)C1C2 (stereo partly drawn) [Compound 9]	−	−	−	+	+	−	+	+	−	+	+	−				+	+	±
CC1(C)C2CC3OB([C@@H](CNC(=O)[C@@H](N)Cc4ccccc4)Cc4ccccc4)O[C@]3(C)C1C2 (stereo partly drawn) [Compound 10]	−	−	−	+	+	±	+	+	±	+	+	±						
C[C@H](CNC(=O)[C@@H](N)CCCCN)B1OC2CC3CC(C3(C)C)[C@@]2(C)O1 (stereo partly drawn) [Compound 16]	+	±	−							+	+	±						
C[C@H](CNC(=O)[C@@H](N)Cc1ccccc1)B1OC2CC3CC(C3(C)C)[C@@]2(C)O1 (stereo partly drawn) [Compound 17]	+	+	−	+	+	−	+	+	−	+	+	±						
CC1(C)C2CC3OB([C@@H](CNC(=O)[C@@H](N)Cc4ccccc4)c4ccccc4)O[C@]3(C)C1C2 (stereo partly drawn) [Compound 23]	+	+	−	+	+	−	+	+	−	+	+	−						
CC1(C)C2CC3OB(C(CNC(=O)C(N)CCCCN)c4ccccc4)OC3(C)C1C2 (stereo not drawn) [Compound 24]	+	+	−															
C[C@@H](NC(=O)[C@@H](N)Cc1ccccc1)[C@@H](Cc1ccccc1)B1OC2CC3CC(C3(C)C)[C@@]2(C)O1 (stereo partly drawn) [Compound 27]	+	−	±	+	+	±				+	+	±						
C[C@@H](B1OC2CC3CC(C3(C)C)[C@@]2(C)O1)[C@@H](Cc1ccccc1)NC(=O)[C@@H](N)Cc1ccccc1 (stereo partly drawn) [Compound 28]	+	−	−	+	+	±	+	+	±	+	+	±						
CC1(C)C2CC3OB(CCNC(=O)[C@@H](N)CCCCN)O[C@]3(C)C1C2 (stereo partly drawn) [Compound 32]	+	+	−							+	+	−	+	+	±			
N[C@@H](Cc1ccccc1)C(=O)N[C@@H](CB(O)O)Cc1ccccc1 [Compound 33]	±	−	−															
C[C@H](N)C(=O)N[C@@H](CB(O)O)Cc1ccccc1 [Compound 35]	+	+	−															
NCCCC[C@H](N)C(=O)NC[C@@H](CCc1ccccc1)B(O)O [Compound 37]	+	+	−							+	+	−						
N[C@@H](Cc1ccccc1)C(=O)NC[C@@H](CCc1ccccc1)B(O)O [Compound 39]	+	+	−										+	+	−			
C[C@H](N)C(=O)NC[C@H](Cc1ccccc1)B(O)O [Compound 40]	±	±	−															
